# Assay results as given in patent publication US7968697B2, “Hepatitis C virus non-structural NS3/4A fusion gene” (ChronTech Pharma AB, priority 2005, dated 2011).
# “And” between values parts separate entries of the source, which are not always exact repeats. Identical values can stand only once.
# Columns and labels:
# NS3 = experiment: NS3-specific IgG subclass EIA after rNS3 with or without ribavirin; assay type: in vivo, mice; settings: 0.1 or 1.0 mg ribavirin with 10 μg rNS3 i.p. at weeks 0 and 4; bled at week six
# Description: The mice were bled at week six and NS3-specific IgG subclasses were determined by EIA as described previously.
# rNS3 = experiment: EIA antibody titre to rNS3 after immunization with rNS3 with or without ribavirin; assay type: in vivo, Balb/c mice; settings: for Group mean titre (mean ± SD) to rNS3, Week 4 / Group mean titre (mean ± SD) to rNS3, Week 6 / Group mean titre (mean ± SD) to rNS3, Week 8 / Antibody titre to rNS3 at Week 4 / Antibody titre to rNS3 at Week 6 / Antibody titre to rNS3 at Week 8: i.p.; for Endpoint titre of rNS3 IgG at Week 1 / Endpoint titre of rNS3 IgG at Week 2 / Endpoint titre of rNS3 IgG at Week 3 / Antibody titre to rNS3 at Week 4 / Antibody titre to rNS3 at Week 6 / Antibody titre to rNS3 at Week 8: individual mouse
# Description: In a first set of experiments, groups of three to five Balb/c mice (BK Universal, Uppsala, Sweden) were immunized i.p or s.c. (e.g., at the base of the tail) with 10 μg or 100 μg of recombinant hepatitis C virus non-structural 3 (rNS3) protein. […] Mice were injected with a total volume of 100 μl per injection.
# At two and four weeks following i.p. immunization, all mice were bled by retro-orbital sampling. Serum samples were collected and analyzed for the presence of antibodies to rNS3. To determine the antibody titer, an enzyme immunoassay (EIA) was performed. (See e.g., Hultgren et al., J Gen Virol. 79:2381-91 (1998) and Hultgren et al., Clin. Diagn. Lab. Immunol. 4:630-632 (1997)). The antibody levels were recorded as the highest serum dilution giving an optical density at 405 nm more than twice that of non-immunized mice.
# At four, six and eight weeks the mice were bled and serum was separated and frozen. After completion of the study, sera were tested for the levels of antibodies to recombinant NS3, as described above. Mean antibody levels to rNS3 were compared between the groups using Student's t-test (parametric analysis) or Mann-Whitney (non-parametric analysis) and the software package StatView 4.5 (Abacus Concepts, Berkely, Calif.). […] The values given represent end point titres to recombinant rNS3.
# The levels of antibody to the antigen were then determined by EIA.
# A second set of experiments was also performed. […] The mice were bled at week six and rNS3-specific IgG levels were determined by EIA as described previously.
# CD4+ T cell = experiment: In vitro recall assay, lymph node CD4+ T cell proliferation ([3H] thymidine); assay type: cell-based, mice; settings: 100 μg rNS3 mixed with 1 mg ribavirin s.c.; ten days post-immunization; 96 h of culture
# Description: This assay can be used with any ribavirin derivative or combinations of ribavirin derivatives to determine the extent that a particular vaccine formulation modulates a cellular immune response. […] The mice were sacrificed ten days post-immunization and their lymph nodes were harvested and drained. In vitro recall assays were then performed. (See e.g., Hultgren et al., J Gen Virol. 79:2381-91 (1998) and Hultgren et al., Clin. Diagn. Lab. Immunol. 4:630-632 (1997)). The amount of CD4^+ T cell proliferation was determined at 96 h of culture by the incorporation of [^3H] thymidine.
# HBsAg = experiment: EIA antibody titer to HBsAg after Engerix vaccine with or without ribavirin; assay type: in vivo, mice; settings: 1 mg ribavirin mixed with 2 μg Engerix i.p., booster week four, bled week six
# Excerpt: (Engerix, SKB). […] A booster containing the same mixture was given on week four and all mice were bled on week six.
# [1] = system: NS3/4A-expressing EL-4 cells; experiment: In vivo challenge with NS3/4A-expressing EL-4 lymphoma cells, prophylactic and therapeutic; settings: immunized only once; C57BL/6 mice
# Description: To confirm that inhibition of tumor growth using the NS3/4A-expressing EL-4 cell line is fully dependent on an NS3/4A-specific immune response a control experiment was performed. Groups of ten C57BL/6 mice were either left nonimmunized, or immunized twice with the coNS3/4A plasmid. Two weeks after the last immunization the mice were challenged with an s.c. injection of 10^6 native EL-4 or NS3/4A-expressing EL-4 cells (NS3/4A-EL-4). An NS3/4A-specific immune response was required for protection, since only the immunized mice were protected against growth of the NS3/4A-EL-4 cell line (FIG. 13). Thus, this H-2^b-restricted model behaves similarly to the SP2/0H-2^d restricted model.
# The tumor challenge model was then used to evaluate how effective the different immunogens were in priming a protective immunity against growth of NS3/4A-EL-4 tumor cells in vivo. […]
# In vivo challenge of immunized mice with the NS3/4A-expressing SP2/0 myeloma or EL-4 lymphoma cell line was performed according to the method described by Encke et al., supra. […] The kinetics of the tumor growth was determined by measuring the tumor size through the skin at days six to 20. […]
# To test the therapeutic effect of the vaccines groups of mice were inoculated with the tumor cells as described above. […] The tumor growth was monitored from day 6 to day 20.
# [2] = 0.1 mg ribavirin mixed with 20 μg rNS3
# [3] = 1.0 mg ribavirin mixed with 20 μg rNS3
# [4] = 10.0 mg ribavirin mixed with 20 μg rNS3
# [5] = 10 mg ribavirin with 10 μg rNS3
# [6] = 10 mg ribavirin with 50 μg rNS3
compound,measurement,setting,value
"NC(=O)c1ncn([C@@H]2O[C@H](CO)[C@@H](O)[C@H]2O)n1 [ribavirin, 1-β-D-ribofuranosyl-1,2,4-triazole-3-carboxamide]",effect on the NS3-specific IgG subclass response,NS3,does not change the IgG subclass response
same,Mean endpoint titre of rNS3 IgG at Week 1,rNS3; [2],1110 ± 1484
same,Mean endpoint titre of rNS3 IgG at Week 2,rNS3; [2],5060 ± 6921
same,antibody titer compared with formulations composed of only rNS3,"rNS3; 1 mg of ribavirin and either 10 μg or 100 μg of rNS3, two weeks post-immunization",significantly greater antibody titer
same,Mean endpoint titre of rNS3 IgG at Week 1,rNS3; [3],360
same,Mean endpoint titre of rNS3 IgG at Week 3,rNS3; [3],5760 ± 6235
same,"Group mean titre (mean ± SD) to rNS3, Week 4",rNS3; 1 mg ribavirin with 10 μg rNS3,252 ± 107
same,"Group mean titre (mean ± SD) to rNS3, Week 6",rNS3; 1 mg ribavirin with 10 μg rNS3,28071 ± 16195
same,"Group mean titre (mean ± SD) to rNS3, Week 8",rNS3; 1 mg ribavirin with 10 μg rNS3,36642 ± 67565
same,"Group mean titre (mean ± SD) to rNS3, Week 4",rNS3; 1 mg ribavirin with 50 μg rNS3,150 ± 124
same,"Group mean titre (mean ± SD) to rNS3, Week 6",rNS3; 1 mg ribavirin with 50 μg rNS3,52500 ± 55549
same,"Group mean titre (mean ± SD) to rNS3, Week 8",rNS3; 1 mg ribavirin with 50 μg rNS3,37500 ± 62105
same,"Group mean titre (mean ± SD) to rNS3, Week 4",rNS3; 3 mg ribavirin with 10 μg rNS3,180 ± 128
same,"Group mean titre (mean ± SD) to rNS3, Week 6",rNS3; 3 mg ribavirin with 10 μg rNS3,30000 ± 13887
same,"Group mean titre (mean ± SD) to rNS3, Week 8",rNS3; 3 mg ribavirin with 10 μg rNS3,22500 ± 34637
same,"Group mean titre (mean ± SD) to rNS3, Week 4",rNS3; 3 mg ribavirin with 50 μg rNS3,387 ± 513
same,"Group mean titre (mean ± SD) to rNS3, Week 6",rNS3; 3 mg ribavirin with 50 μg rNS3,30000 ± 13887
same,Mean endpoint titre of rNS3 IgG at Week 1,rNS3; [4],360
same,Mean endpoint titre of rNS3 IgG at Week 2,rNS3; [4],5760 ± 6235
same,Mean endpoint titre of rNS3 IgG at Week 3,rNS3; [4],30960 ± 40888
same,"Group mean titre (mean ± SD) to rNS3, Week 4",rNS3; [5],220 ± 139
same,"Group mean titre (mean ± SD) to rNS3, Week 4",rNS3; [6],140 ± 124
same,"Group mean titre (mean ± SD) to rNS3, Week 6",rNS3; [6],10929 ± 11928
same,"Group mean titre (mean ± SD) to rNS3, Week 8",rNS3; [6],15214 ± 15380
same,"adjuvant effect on antibody levels, kinetics",rNS3; higher doses (1-10 mg) of ribavirin with 20 μg rNS3,enhance antibody levels at week three
same,Endpoint titre of rNS3 IgG at Week 1,rNS3; [2],2160 and 60 and <60
same,Endpoint titre of rNS3 IgG at Week 2,rNS3; [2],12960 and 60 and 2160
same,Endpoint titre of rNS3 IgG at Week 3,rNS3; [2],2160 (2×) and 60
same,Endpoint titre of rNS3 IgG at Week 1,rNS3; [3],<60 (2×) and 360
same,Endpoint titre of rNS3 IgG at Week 2,rNS3; [3],60 and 2160 (2×)
same,Endpoint titre of rNS3 IgG at Week 3,rNS3; [3],12960 and 2160 (2×)
same,Antibody titre to rNS3 at Week 4,rNS3; 1 mg ribavirin with 10 μg rNS3,300 (4×) and <60 (3×) and 60
same,Antibody titre to rNS3 at Week 6,rNS3; 1 mg ribavirin with 10 μg rNS3,37500 (5×) and 1500 and 7500
same,Antibody titre to rNS3 at Week 8,rNS3; 1 mg ribavirin with 10 μg rNS3,37500 and 1500 and 187500 and 7500 (4×)
same,Antibody titre to rNS3 at Week 4,rNS3; 1 mg ribavirin with 50 μg rNS3,60 (5×) and 300 (3×)
same,Antibody titre to rNS3 at Week 6,rNS3; 1 mg ribavirin with 50 μg rNS3,7500 and 37500 (6×) and 187500
same,Antibody titre to rNS3 at Week 8,rNS3; 1 mg ribavirin with 50 μg rNS3,7500 (5×) and 187500 and 37500 (2×)
same,Antibody titre to rNS3 at Week 4,rNS3; 3 mg ribavirin with 10 μg rNS3,60 (4×) and 300 (4×)
same,Antibody titre to rNS3 at Week 6,rNS3; 3 mg ribavirin with 10 μg rNS3,37500 (6×) and 7500 (2×)
same,Antibody titre to rNS3 at Week 8,rNS3; 3 mg ribavirin with 10 μg rNS3,7500 (4×) and 37500 (4×)
same,Antibody titre to rNS3 at Week 4,rNS3; 3 mg ribavirin with 50 μg rNS3,60 (3×) and 300 (3×) and 1500
same,Antibody titre to rNS3 at Week 6,rNS3; 3 mg ribavirin with 50 μg rNS3,37500 (6×) and 7500 (2×)
same,Antibody titre to rNS3 at Week 8,rNS3; 3 mg ribavirin with 50 μg rNS3,7500 (5×) and 37500 (3×)
same,Endpoint titre of rNS3 IgG at Week 1,rNS3; [4],360 (2×) and <60
same,Endpoint titre of rNS3 IgG at Week 2,rNS3; [4],12960 and 2160 (2×)
same,Endpoint titre of rNS3 IgG at Week 3,rNS3; [4],77760 and 12960 and 2160
same,Antibody titre to rNS3 at Week 4,rNS3; [5],300 (2×) and <60 (5×) and 60
same,Antibody titre to rNS3 at Week 6,rNS3; [5],37500 (3×) and 300 (2×) and 7500 (2×)
same,Antibody titre to rNS3 at Week 8,rNS3; [5],37500 (3×) and 300 (2×) and 7500 (2×)
same,Antibody titre to rNS3 at Week 4,rNS3; [6],300 (2×) and 60 (5×)
same,Antibody titre to rNS3 at Week 6,rNS3; [6],7500 (5×) and 37500 (2×) and 1500
same,Antibody titre to rNS3 at Week 8,rNS3; [6],7500 (5×) and 37500 (2×) and 1500
same,"adjuvant effect on antibody levels, kinetics",rNS3; low doses (<1 mg) of ribavirin with 20 μg rNS3,enhance antibody levels at week one but not at week three
same,T cell proliferative response compared with 100 μg rNS3 in PBS,CD4+ T cell,much greater T cell proliferative response
same,effect on the antibody response to HBsAg vaccine,HBsAg,enhanced the response
"GAVQNEVTL (Artificial Peptide, NS3/4A H-2D Binding Peptide) [NS3-derived CTL peptide, ID; NO.: 37]",protection against growth of NS3/4A-EL-4 tumors,[1],not protected
